Columns and labels:
Assay in all cases: Bliss excess, mean over the matrix (fraction); higher = more synergy
[1] = test system: ALL-SIL (T-Lymphoblastic Leukemia)
Outline: (§1)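 Cell lines grown in DMEM/F12 or RPMI with 10% FBS were plated in 1536-well plates and held 24 hours at 37°C, 5% CO2 before 72 hours of exposure to two-drug dose matrices, with DMSO typically at 0.2%. CellTiter-Glo 2.0 luminescence gave viability, which was converted to inhibition. Vehicle wells were set to 0 and blank wells to 1. Combination Emax is the second-highest inhibition in the matrix, and Bliss excess is the observed combination effect minus the expected EA + EB − EA·EB, where EA and EB are the single-agent effects.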

[2] = test system: CADO-ES1 (Ewing's Sarcoma)
Outline: as §1

[3] = test system: Ca-Ski (Cervical Carcinoma)
Outline: as §1

[4] = test system: DU-145 (Prostate Carcinoma)
Outline: as §1

[5] = test system: EFO-21 (Ovarian Carcinoma)
Outline: as §1

EW-1 (Ewing's Sarcoma) = test system: EW-1 (Ewing's Sarcoma)
Outline: as §1

[6] = test system: HAL-01 (B-Lymphoblastic Leukemia)
Outline: as §1

[7] = test system: HCC2998 (Colorectal Carcinoma)
Outline: as §1

[8] = test system: KOPN-8 (B-Lymphoblastic Leukemia)
Outline: as §1

[9] = test system: LC-1-sq (Squamous Cell Lung Carcinoma)
Outline: as §1

[10] = test system: MDA-MB-453 (Breast Carcinoma)
Outline: as §1

[11] = test system: ME-180 (Cervical Carcinoma)
Outline: as §1

[12] = test system: MOG-G-UVW (Low Grade Glioma)
Outline: as §1

[13] = test system: NCI-H1838 (Lung Adenocarcinoma)
Outline: as §1

[14] = test system: NCI-H2122 (Lung Adenocarcinoma)
Outline: as §1

[15] = test system: NCI-H522 (Lung Adenocarcinoma)
Outline: as §1

[16] = test system: OACM5-1 (Esophageal Adenocarcinoma)
Outline: as §1

[17] = test system: OE33 (Esophageal Adenocarcinoma)
Outline: as §1

SK-N-AS (Neuroblastoma) = test system: SK-N-AS (Neuroblastoma)
Outline: as §1

[18] = test system: SW982 (Other Solid Carcinomas)
Outline: as §1

SMILES	Bliss excess [1]	Bliss excess [2]	Bliss excess [3]	Bliss excess [4]	Bliss excess [5]	Bliss excess (EW-1 (Ewing's Sarcoma))	Bliss excess [6]	Bliss excess [7]	Bliss excess [8]	Bliss excess [9]	Bliss excess [10]	Bliss excess [11]	Bliss excess [12]	Bliss excess [13]	Bliss excess [14]	Bliss excess [15]	Bliss excess [16]	Bliss excess [17]	Bliss excess (SK-N-AS (Neuroblastoma))	Bliss excess [18]
CN(C)CCCOc1ccc(-c2ccc3ncc4c(c3c2)n(C2CCOCC2)c(=O)n4C)cn1 [AZD0156] + C=CCn1c(=O)c2cnc(Nc3ccc(N4CCN(C)CC4)cc3)nc2n1-c1cccc(C(C)(C)O)n1 [AZD1775] (first compound max 1 µM, partner max 1 µM)	-0.0205	0.0196	-0.0291	-0.0236	-0.0369	-0.0281	0.053	0.057	-0.0256	-0.0248	-0.0736	-0.0787	-0.0525	-0.0296	0.0551	-0.0131	-0.051	0.0402	-0.0492	-0.0676
CN(C)CCCOc1ccc(-c2ccc3ncc4c(c3c2)n(C2CCOCC2)c(=O)n4C)cn1 [AZD0156] + CCN(CCO)CCCOc1ccc2c(Nc3cc(CC(=O)Nc4cccc(F)c4)[nH]n3)ncnc2c1 [AZD2811] (first compound max 1 µM, 7x7, partner max 1 µM)	-0.0532	0.0131	0.008	-0.0263	-0.0506	0.0446	0.0135	0.0314	0.0535	0.0392	-0.0208	-0.0143	0.045	-0.0122	0.0471	-0.0201	-0.0366	-0.0173	-0.014	-0.0042
CN(C)CCCOc1ccc(-c2ccc3ncc4c(c3c2)n(C2CCOCC2)c(=O)n4C)cn1 [AZD0156] + C[C@@H]1COCCN1C2=NC(=NC(=C2)C3(CC3)[S@](=N)(=O)C)C4=C5C=CNC5=NC=C4 [AZD6738] (first compound max 1 µM, 7x7, partner max 10 µM)	-0.0759	0.0405	-0.0036	-0.0233	-0.0206	0.042	-0.0648	0.0637	-0.0166	-0.0098	-0.0229	-0.0468	0.0282	-0.0082	0.0154	-0.0258	-0.0282	-0.0451	-0.0108	-0.0507
CN(C)CCCOc1ccc(-c2ccc3ncc4c(c3c2)n(C2CCOCC2)c(=O)n4C)cn1 [AZD0156] + O=C(c1cc(Cc2n[nH]c(=O)c3ccccc23)ccc1F)N1CCN(C(=O)C2CC2)CC1 [Olaparib] (first compound max 3 µM, partner max 3 µM)	0.0281	0.285	0.063	-0.0462	-0.0149	0.231	0.191	0.0824	0.31	-0.0374	-0.0266	0.0444	0.204	-0.0093	0.109	-0.0273	-0.0162	0.0228	-0.0959	0.0903
C=CCn1c(=O)c2cnc(Nc3ccc(N4CCN(C)CC4)cc3)nc2n1-c1cccc(C(C)(C)O)n1 [AZD1775] + C1CN(CCC1(C(=O)N[C@@H](CCO)C2=CC=C(C=C2)Cl)N)C3=NC=NC4=C3C=CN4 [Capivasertib] (first compound max 3 µM, partner max 3 µM)	-0.0129	0.006	0.0161	-0.055	-0.0991	0.0379	-0.0528	0.0232	0.0369	-0.128	-0.0524	0.0063	-0.0039	-0.0978	0.0752	-0.0028	-0.0553	-0.0326	-0.0806	-0.0415
C=CCn1c(=O)c2cnc(Nc3ccc(N4CCN(C)CC4)cc3)nc2n1-c1cccc(C(C)(C)O)n1 [AZD1775] + C[C@@H]1COCCN1C2=NC(=NC(=C2)C3(CC3)[S@](=N)(=O)C)C4=C5C=CNC5=NC=C4 [AZD6738] (first compound max 1 µM, partner max 10 µM)	0.044	0.0441	0.0052	0.02	-0.0492	0.0194	–	0.0923	-0.0006	0.0139	0.0214	-0.0022	0.0202	-0.0173	-0.0303	0.0006	0.0994	-0.0081	0.0189	-0.019
C=CCn1c(=O)c2cnc(Nc3ccc(N4CCN(C)CC4)cc3)nc2n1-c1cccc(C(C)(C)O)n1 [AZD1775] + O=C(c1cc(Cc2n[nH]c(=O)c3ccccc23)ccc1F)N1CCN(C(=O)C2CC2)CC1 [Olaparib] (first compound max 1 µM, partner max 10 µM)	-0.0303	0.0402	-0.0474	-0.073	-0.0266	-0.0235	-0.0542	-0.057	-0.016	-0.0216	-0.0441	-0.0244	-0.0329	-0.0774	-0.0522	0.0441	-0.0363	0.0117	-0.0075	-0.102
CCN(CCO)CCCOc1ccc2c(Nc3cc(CC(=O)Nc4cccc(F)c4)[nH]n3)ncnc2c1 [AZD2811] + C=CCn1c(=O)c2cnc(Nc3ccc(N4CCN(C)CC4)cc3)nc2n1-c1cccc(C(C)(C)O)n1 [AZD1775] (first compound max 1 µM, partner max 1 µM)	-0.0408	-0.0086	0.0123	-0.0116	-0.062	-0.0026	0.0495	-0.0014	0.0507	0.0025	0.0236	-0.0356	-0.0202	-0.0575	0.0618	0.02	0.0426	0.0006	0.0108	-0.0501
CCN(CCO)CCCOc1ccc2c(Nc3cc(CC(=O)Nc4cccc(F)c4)[nH]n3)ncnc2c1 [AZD2811] + C[C@@H]1COCCN1C2=NC(=NC(=C2)C3(CC3)[S@](=N)(=O)C)C4=C5C=CNC5=NC=C4 [AZD6738] (first compound max 1 µM, 7x7, partner max 10 µM)	-0.0499	-0.012	-0.0273	-0.0535	-0.0656	0.0268	0.0306	-0.0574	0.032	-0.0239	-0.0352	-0.0385	-0.0581	-0.0107	-0.0436	-0.0123	-0.0628	-0.0167	-0.0365	-0.0585
CCN(CCO)CCCOc1ccc2c(Nc3cc(CC(=O)Nc4cccc(F)c4)[nH]n3)ncnc2c1 [AZD2811] + O=C(c1cc(Cc2n[nH]c(=O)c3ccccc23)ccc1F)N1CCN(C(=O)C2CC2)CC1 [Olaparib] (first compound max 1 µM, 7x7, partner max 10 µM)	-0.0525	0.0242	0.0242	-0.0105	-0.0409	0.0008	-0.043	0.0257	0.0034	0.0434	-0.0253	-0.0208	-0.0088	-0.0348	0.0155	0.0123	0.0082	-0.0094	0.0255	-0.0365
Cc1c2c(nn1C)CSCc1cc(n(C)n1)CSc1cc(c3ccccc3c1)OCCCc1c(C(=O)O)n(C)c3c-2c(Cl)ccc13 [AZD5991] + C=CCn1c(=O)c2cnc(Nc3ccc(N4CCN(C)CC4)cc3)nc2n1-c1cccc(C(C)(C)O)n1 [AZD1775] (first compound max 1 µM, partner max 1 µM)	0.0026	-0.0308	-0.0012	0.0621	0.0177	0.01	-0.0197	0.0142	-0.0397	-0.0139	-0.0091	-0.0379	-0.0756	0.0159	–	-0.0201	-0.04	-0.023	-0.066	-0.0549
Cc1c2c(nn1C)CSCc1cc(n(C)n1)CSc1cc(c3ccccc3c1)OCCCc1c(C(=O)O)n(C)c3c-2c(Cl)ccc13 [AZD5991] + CCN(CCO)CCCOc1ccc2c(Nc3cc(CC(=O)Nc4cccc(F)c4)[nH]n3)ncnc2c1 [AZD2811] (first compound max 1 µM, 7x7, partner max 1 µM)	-0.0282	0.0101	0.0869	-0.0282	-0.0065	0.0979	0.0012	0.0679	-0.0289	0.0425	0.125	–	0.0197	0.0109	0.0065	0.111	0.0416	-0.002	0.0414	-0.0578
Cc1c2c(nn1C)CSCc1cc(n(C)n1)CSc1cc(c3ccccc3c1)OCCCc1c(C(=O)O)n(C)c3c-2c(Cl)ccc13 [AZD5991] + Cc1cc2ncnn2cc1Nc1ncc2c(n1)n(C1CCOCC1)c(=O)n2C [AZD7648] (first compound max 1 µM, 7x7, partner max 10 µM)	-0.0253	-0.0296	-0.0079	-0.0307	-0.116	-0.0108	0.0227	-0.0317	-0.0816	0.0048	-0.0328	-0.009	0.0048	-0.0929	-0.0559	-0.0586	–	-0.0304	-0.0554	-0.0232
CS(=O)(=O)CCNCc1ccc(-c2ccc3ncnc(Nc4ccc(OCc5cccc(F)c5)c(Cl)c4)c3c2)o1 [Lapatinib] + NC1(c2ccc(-c3nc4ccn5c(=O)[nH]nc5c4cc3-c3ccccc3)cc2)CCC1 [MK-2206] (first compound max 10 µM, 7x7, partner max 10 µM)	–	–	0.0103	-0.0235	0.0024	–	0.0687	–	-0.0586	–	0.0474	0.0315	0.0675	-0.0422	–	-0.0313	–	-0.0133	-0.0327	-0.0099
CCc1c2c(nc3ccc(O)cc13)-c1cc3c(c(=O)n1C2)COC(=O)[C@]3(O)CC [SN-38] + O=C(c1cc(Cc2n[nH]c(=O)c3ccccc23)ccc1F)N1CCN(C(=O)C2CC2)CC1 [Olaparib] (first compound max 0.3 µM, 7x7, partner max 10 µM)	0.0795	0.0253	0.0458	0.0282	0.0601	0.0642	0.0568	–	0.0271	0.0716	0.0456	0.0915	0.036	–	–	0.0909	0.0474	0.0383	0.096	0.0384

Source: the supplement of paper PMC11061612
